# Measured values as given in patent US12497378B2, “Tetrahydronaphthalene compounds, pharmaceutical compositions, and uses thereof” (GUANGZHOU HENOVCOM BIOSCIENCE CO., LTD., priority 2020, dated 2025).
# Experiment: Pharmacokinetics experiment in mouse after intramuscular injection of compound suspensions
# Format: in vivo
# Conditions: 9 mg/kg (calculated according to Rotigotine), SD mice, plasma
# Description: The compounds of the present disclosure were precisely weighed in a proper amount and placed in a 20 ml vial, a blank matrix solution and a zirconia grinding ball were added to grind by vortex. After grinding, the suspension sample was transferred, and the blank matrix solution was used for diluting the suspension sample to final volume, and the suspension sample was packaged into 7 ml vials to prepare about a 20 mg/ml suspension. After the quantitative analysis was determined, the suspension was used for the pharmacokinetics experiment in the mouse.
# Suspensions of Embodiments 15, 24, 27, 32 and 54 were prepared according to the method of Embodiment 82 and were taken at a dose of 9 mg/kg(calculated according to Rotigotine), and each of the above-mentioned compound suspensions was intramuscularly administrated for three SD mice, and whole blood samples were taken in 1 h, 4 h, 8 h, 24 h, 48 h, 72 h, 96 h, 120 h, 168 h, 216, 264 h, 312 h, and 360 h after administration, with 0.3 ml/time point. K2EDT/heparin sodium were added to the whole blood samples for anticoagulation, and a BNPP stabilizer was further added, and then each whole blood sample was centrifuged to obtain plasma in 30 min.
substance,measurement,setting,value
"(S)-6-(propyl(2-(thiophen-2-yl)ethyl)amino)-5,6,7,8-tetrahydronaphthalen-1-yl 3-(16-(ethylamino)-16-oxohexadecanamido) propanoate [Embodiment 54]",blood concentrations of the active compounds,1 h after intramuscular injection of compound suspension,0.288 ng/mL
same,blood concentrations of the active compounds,4 h after intramuscular injection of compound suspension,1.26 ng/mL
same,blood concentrations of the active compounds,8 h after intramuscular injection of compound suspension,2.53 ng/mL
same,blood concentrations of the active compounds,24 h after intramuscular injection of compound suspension,2.31 ng/mL
same,blood concentrations of the active compounds,48 h after intramuscular injection of compound suspension,2.02 ng/mL
same,blood concentrations of the active compounds,72 h after intramuscular injection of compound suspension,1.51 ng/mL
same,blood concentrations of the active compounds,96 h after intramuscular injection of compound suspension,1.57 ng/mL
same,blood concentrations of the active compounds,120 h after intramuscular injection of compound suspension,1.86 ng/mL
same,blood concentrations of the active compounds,168 h after intramuscular injection of compound suspension,2.29 ng/mL
same,blood concentrations of the active compounds,216 h after intramuscular injection of compound suspension,2.76 ng/mL
same,blood concentrations of the active compounds,264 h after intramuscular injection of compound suspension,1.83 ng/mL
same,blood concentrations of the active compounds,312 h after intramuscular injection of compound suspension,1.33 ng/mL
same,blood concentrations of the active compounds,360 h after intramuscular injection of compound suspension,0.906 ng/mL
